Experimental data published in the supplement of paper PMC11451515.

System: NOMO1
Assay: cell viability relative to DMSO control; higher = less cytotoxic
Settings: 48 h
In short: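 Viability was expressed as a per-plate percentage of DMSO wells, with cell-free wells as background. Leukemia cells (NOMO1 or SEM at 500 cells/well, P12-Ichikawa at 1000 cells/well) were adapted for at least four passages in each medium and seeded in 1536-well plates (5 μl). Library compounds in DMSO were pin-dosed over an 11-point threefold series from 47 μM to 0.79 nM, and CellTiter-Glo One luminescence was read after 48 h at 37°C.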

[1] = HPLM + 10% dialyzed FBS, 0.000781 µM
[2] = HPLM + 10% dialyzed FBS, 0.00234 µM
[3] = HPLM + 10% dialyzed FBS, 0.00702 µM
[4] = HPLM + 10% dialyzed FBS, 0.0211 µM
[5] = HPLM + 10% dialyzed FBS, 0.0632 µM
[6] = HPLM + 10% dialyzed FBS, 0.19 µM
[7] = HPLM + 10% dialyzed FBS, 0.569 µM
[8] = HPLM + 10% dialyzed FBS, 1.71 µM
[9] = HPLM + 10% dialyzed FBS, 5.12 µM
[10] = HPLM + 10% dialyzed FBS, 15.4 µM
[11] = HPLM + 10% dialyzed FBS, 46.1 µM
[12] = RPMI 5 mM glucose + 10% FBS, 0.000781 µM
[13] = RPMI 5 mM glucose + 10% FBS, 0.00234 µM
[14] = RPMI 5 mM glucose + 10% FBS, 0.00702 µM
[15] = RPMI 5 mM glucose + 10% FBS, 0.0211 µM
[16] = RPMI 5 mM glucose + 10% FBS, 0.0632 µM
[17] = RPMI 5 mM glucose + 10% FBS, 0.19 µM
[18] = RPMI 5 mM glucose + 10% FBS, 0.569 µM
[19] = RPMI 5 mM glucose + 10% FBS, 1.71 µM
[20] = RPMI 5 mM glucose + 10% FBS, 5.12 µM
[21] = RPMI 5 mM glucose + 10% FBS, 15.4 µM
[22] = RPMI 5 mM glucose + 10% FBS, 46.1 µM
[23] = RPMI 5 mM glucose + 10% dialyzed FBS, 0.000781 µM
[24] = RPMI 5 mM glucose + 10% dialyzed FBS, 0.00234 µM
[25] = RPMI 5 mM glucose + 10% dialyzed FBS, 0.00702 µM
[26] = RPMI 5 mM glucose + 10% dialyzed FBS, 0.0211 µM
[27] = RPMI 5 mM glucose + 10% dialyzed FBS, 0.0632 µM
[28] = RPMI 5 mM glucose + 10% dialyzed FBS, 0.19 µM
[29] = RPMI 5 mM glucose + 10% dialyzed FBS, 0.569 µM
[30] = RPMI 5 mM glucose + 10% dialyzed FBS, 1.71 µM
[31] = RPMI 5 mM glucose + 10% dialyzed FBS, 5.12 µM
[32] = RPMI 5 mM glucose + 10% dialyzed FBS, 15.4 µM
[33] = RPMI 5 mM glucose + 10% dialyzed FBS, 46.1 µM

| Compound | cell viability [1] | cell viability [2] | cell viability [3] | cell viability [4] | cell viability [5] | cell viability [6] | cell viability [7] | cell viability [8] | cell viability [9] | cell viability [10] | cell viability [11] | cell viability [12] | cell viability [13] | cell viability [14] | cell viability [15] | cell viability [16] | cell viability [17] | cell viability [18] | cell viability [19] | cell viability [20] | cell viability [21] | cell viability [22] | cell viability [23] | cell viability [24] | cell viability [25] | cell viability [26] | cell viability [27] | cell viability [28] | cell viability [29] | cell viability [30] | cell viability [31] | cell viability [32] | cell viability [33] |
| --- | --- | --- | --- | --- | --- | --- | --- | --- | --- | --- | --- | --- | --- | --- | --- | --- | --- | --- | --- | --- | --- | --- | --- | --- | --- | --- | --- | --- | --- | --- | --- | --- | --- |
| CCOC(=O)c1ccc(C#Cc2ccc3c(c2)C(C)(C)CCS3)nc1 | 101% | 109% | 122% | 108% | 86.1% | 104% | 103% | 101% | 97.8% | 89.1% | 79.6% | 94% | 108% | 91.6% | 100% | 93.3% | 94% | 107% | 96.8% | 99.4% | 98.6% | 94.2% | 90% | 108% | 104% | 109% | 97.9% | 90.2% | 90.7% | 94.9% | 94.6% | 99.6% | 88.7% |
| COC1=CC=C2C(=CC=NC2=C1)OC3=CC=C(NC(=O)\C4=C(C)\N(CC(C)(C)O)N(C4=O)C5=CC=CC=C5)C=C3F | 124% | 116% | 104% | 115% | 132% | 120% | 108% | 107% | 125% | 110% | 105% |  |  |  |  |  |  |  |  |  |  |  |  |  |  |  |  |  |  |  |  |  |  |
| CCC1=C(C)CN(C(=O)NCCc2ccc(S(=O)(=O)NC(=O)N[C@H]3CC[C@H](C)CC3)cc2)C1=O | 97.4% | 93.3% | 105% | 102% | 104% | 112% | 101% | 108% | 87% | 83.3% | 116% | 86.3% | 86.4% | 91.1% | 98.4% | 88.3% | 100% | 90.3% | 89.3% | 95.4% | 91.4% | 95.3% | 82.2% | 97.7% | 97.6% | 92.3% | 99.5% | 93% | 96.3% | 94.1% | 99.3% | 92.5% | 104% |
| CO[C@@H]1[C@H](N(C)C(=O)c2ccccc2)C[C@H]2O[C@]1(C)n1c3ccccc3c3c4c(c5c6ccccc6n2c5c31)C(=O)NC4 | 103% | 104% | 128% | 116% | 153% | 134% | 135% | 114% | 80% | 54.5% | 49.5% | 96.7% | 116% | 107% | 114% | 121% | 115% | 118% | 105% | 87.1% | 50.9% | 44.3% | 117% | 113% | 123% | 111% | 110% | 105% | 114% | 93.2% | 80.3% | 50.8% | 49.5% |
| COc1cc(/C=C/C(=O)CC(=O)/C=C/c2ccc(O)c(OC)c2)ccc1O | 105% | 105% | 118% | 111% | 112% | 123% | 114% | 115% | 99.8% | 42.3% | 5.01% | 97.4% | 93.6% | 103% | 108% | 106% | 105% | 102% | 115% | 102% | 73.2% | 7.35% | 105% | 105% | 106% | 106% | 118% | 112% | 104% | 104% | 101% | 79.9% | 10.1% |
| Cc1cc(SCc2sc(-c3ccc(C(F)(F)F)c(F)c3)nc2C)ccc1OCC(=O)O | 104% | 110% | 120% | 87.7% | 114% | 103% | 110% | 95.4% | 93.7% | 96.6% | 92.9% | 98.2% | 90.4% | 86% | 90.3% | 91% | 98.8% | 99.6% | 88.8% | 88.7% | 92.6% | 86.8% | 99.5% | 103% | 93.5% | 95% | 99.2% | 111% | 97.9% | 94% | 104% | 87.4% | 97% |
| c1ccc(-c2nn3c(c2-c2ccnc4cc(OCCN5CCOCC5)ccc24)CCC3)nc1 | 122% | 126% | 113% | 129% | 133% | 119% | 124% | 108% | 117% | 96.1% | 70.6% | 86% | 99.6% | 107% | 105% | 111% | 108% | 108% | 99.2% | 97.8% | 91.3% | 91.7% | 66.2% | 116% | 102% | 108% | 106% | 108% | 109% | 101% | 98.5% | 92.8% | 83.4% |
| Cc1c(OCC(F)(F)F)ccnc1C[S+]([O-])c1nc2ccccc2[nH]1 (configuration not stated) | 100% | 100% | 107% | 96.6% | 108% | 118% | 122% | 97.7% | 113% | 122% | 110% | 110% | 114% | 105% | 113% | 105% | 108% | 119% | 103% | 118% | 108% | 117% | 102% | 111% | 111% | 109% | 113% | 113% | 115% | 120% | 128% | 113% | 123% |
| O=C(Oc1ccc([N+](=O)[O-])cc1)N1CCN(Cc2cccc(Oc3ccccc3)c2)CC1 | 115% | 110% | 112% | 113% | 113% | 126% | 104% | 126% | 120% | 102% | 122% | 95.6% | 101% | 112% | 113% | 113% | 123% | 110% | 105% | 110% | 109% | 112% | 93.9% | 98.5% | 103% | 99.8% | 99.9% | 98.3% | 103% | 114% | 104% | 112% | 105% |
| CCCCc1oc2ccc(NS(C)(=O)=O)cc2c1C(=O)c1ccc(OCCCN(CCCC)CCCC)cc1 | 109% | 107% | 100% | 105% | 96.7% | 113% | 114% | 64.7% | 34% | 27.5% | 14.4% | 86.9% | 98% | 103% | 98.3% | 97.1% | 93.4% | 103% | 28.8% | 17.8% | 16.4% | 9.17% | 83.2% | 95.5% | 102% | 102% | 93.7% | 106% | 103% | 66% | 28.3% | 20.6% | 12.5% |
| CN[C@@H](C)C(=O)N[C@H]1CCCC[C@H]2CC[C@@H](C(=O)N[C@@H](c3ccccc3)c3cn(CCCCc4ccc(CCCCn5cc([C@@H](NC(=O)[C@@H]6CC[C@@H]7CCCC[C@H](NC(=O)[C@H](C)NC)C(=O)N76)c6ccccc6)nn5)cc4)nn3)N2C1=O | 82.8% | 79.3% | 56% | 61% | 42.3% | 54.4% | 50.6% | 47.9% | 48% | 27.5% | 33.4% | 85.6% | 82.4% | 80.8% | 87.9% | 48.4% | 61.5% | 74% | 70.8% | 51.8% | 51.2% | 57.1% | 75.9% | 81.6% | 84.8% | 64.9% | 65.5% | 72.2% | 53.6% | 52.2% | 42.6% | 54.7% | 34.2% |
| Cc1ccccc1C(C(=O)NC1CCCCC1)N(C(=O)CNc1ccc(C#N)cc1)c1cccc(F)c1 (configuration not stated) | 103% | 111% | 115% | 106% | 98.3% | 111% | 112% | 99.4% | 114% | 84.2% | 82.8% | 77.2% | 88.5% | 94.5% | 87.7% | 103% | 94% | 93.7% | 100% | 89.6% | 90.1% | 87.3% | 71.9% | 110% | 140% | 142% | 98.5% | 84.7% | 88.2% | 70.1% | 80.3% | 97% | 76.9% |
| CCOP(=O)(OCC)C(C)NC(=O)N(CCCl)N=O (configuration not stated) |  |  |  |  |  |  |  |  |  |  |  | 120% | 115% | 124% | 134% | 121% | 131% | 126% | 139% | 141% | 163% | 154% | 112% | 116% | 138% | 141% | 137% | 137% | 134% | 136% | 133% | 140% | 128% |
| C[C@H]1CCC/C=C/C2C[C@H](O)C[C@H]2[C@H](O)/C=C/C(=O)O1 (some centres not stated) | 4.93% | 15.8% | 26.7% | 7.07% | 5.05% | 5.57% | 5.16% | 4.43% | 3.51% | 3.39% | 2.94% | 5.4% | 7% | 5.78% | 5.27% | 5.07% | 4.51% | 4.27% | 3.98% | 1.66% | 1.88% | 3.46% | 79.5% | 6.02% | 10% | 5.74% | 4.22% | 4.83% | 4.29% | 3.43% | 2.6% | 2.61% | 2.61% |
| CN1C(=O)COc2c(C(=O)NC3CN4CCC3CC4)cc(Cl)cc21 (configuration not stated) | 68.8% | 121% | 112% | 107% | 105% | 104% | 119% | 109% | 104% | 111% | 108% | 90.2% | 106% | 94.2% | 88.8% | 110% | 109% | 99% | 92.1% | 90.6% | 105% | 85.6% | 104% | 102% | 106% | 93.2% | 97.1% | 91.6% | 97.6% | 89.7% | 90.5% | 85.8% | 97.7% |
